Data as given in ChEMBL document CHEMBL1649488, “In vitro activities of echinocandins against Candida krusei determined by three methods: MIC and minimal fungicidal concentration measurements and time-kill studies” (2009).
Converted amounts (≈) assume the structure as drawn. Starred links: 1 amine or outer side, 2 acyl side, 3 side chain; linkers in the order of their positions; H or OH if unused. Positions of bridges follow the written chain, without caps; N, C: chain ends. Non-standard residues stand in square brackets, D forms with d. Residues, ends and D or L forms follow the SMILES beside them. *: point of attachment. hTyr(3S-OH,4S-OH,3'-OSO3H) = N[C@H](C(=O)O)[C@H](O)[C@@H](O)c1ccc(O)c(OS(=O)(=O)O)c1; Orn(4R-OH,5R-OH) = O=C([C@H](C[C@@H](O)[C@@H](O)N[*:3])N[*:1])[*:2]; Pro(3S-OH,4S-Me) = C[C@H]1CN[C@H](C(=O)O)[C@H]1O; X1 = CCCCCOc1ccc(-c2cc(-c3ccc(C(=O)*)cc3)no2)cc1; Gln(3R-OH) = NC(=O)C[C@@H](O)[C@H](N)C(=O)O; Hyp = O=C(O)[C@@H]1C[C@@H](O)CN1

Key:
Format in all cases: functional
Pichia kudriavzevii [1] = assay: Fungicidal activity against Candida krusei CK2 bloodstream forms after 24 hrs by time-kill analysis; settings: CK2, 24 h
Pichia kudriavzevii [2] = assay: Antifungal activity against Candida krusei ATCC 6258 bloodstream forms assessed as time to achieve 99% fungal growth reduction at 16 mg/L by time-kill analysis
Pichia kudriavzevii [3] = assay: Antifungal activity against Candida krusei EU123 bloodstream forms after 24 hrs by time-kill analysis; settings: EU123, 24 h
Pichia kudriavzevii [4] = assay: Antifungal activity against Candida krusei ATCC 6258 bloodstream forms assessed as time to achieve 90% fungal growth reduction at 16 mg/L by time-kill analysis
Pichia kudriavzevii [5] = assay: Antifungal activity against Candida krusei ATCC 6258 bloodstream forms assessed as time to achieve 99% fungal growth reduction at 1 mg/L by time-kill analysis
Pichia kudriavzevii [6] = assay: Antifungal activity against Candida krusei ATCC 6258 bloodstream forms assessed as minimum concentration producing >= 100% growth reduction after 48 hrs by M27-A3 microdilution method; settings: ATCC 6258, 48 h
Pichia kudriavzevii [7] = assay: Antifungal activity against Candida krusei ATCC 6258 bloodstream forms assessed as time to achieve 50% fungal growth reduction at 1 mg/L by time-kill analysis
Pichia kudriavzevii [8] = assay: Antifungal activity against Candida krusei ATCC 6258 bloodstream forms assessed as time to achieve 50% fungal growth reduction at 16 mg/L by time-kill analysis
Pichia kudriavzevii [9] = assay: Antifungal activity against Candida krusei ATCC 6258 bloodstream forms assessed as time to achieve 90% fungal growth reduction at 0.25 mg/L by time-kill analysis
Pichia kudriavzevii [10] = assay: Antifungal activity against Candida krusei ATCC 6258 bloodstream forms assessed as minimum concentration producing >= 50% growth reduction after 24 hrs by M27-A3 microdilution method; settings: ATCC 6258, 24 h
Pichia kudriavzevii [11] = assay: Antifungal activity against Candida krusei ATCC 6258 bloodstream forms assessed as time to achieve 50% fungal growth reduction at 0.25 mg/L by time-kill analysis
Pichia kudriavzevii [12] = assay: Antifungal activity against Candida krusei CK6 bloodstream forms after 24 hrs by time-kill analysis; settings: CK6, 24 h
Pichia kudriavzevii [13] = assay: Antifungal activity against Candida krusei ATCC 6258 bloodstream forms assessed as time to achieve 99.9% fungal growth reduction at 0.25 mg/L by time-kill analysis
Pichia kudriavzevii [14] = assay: Antifungal activity against Candida krusei ATCC 6258 bloodstream forms assessed as time to achieve 99% fungal growth reduction at 4 mg/L by time-kill analysis
Pichia kudriavzevii [15] = assay: Antifungal activity against Candida krusei ATCC 6258 bloodstream forms assessed as time to achieve 99.9% fungal growth reduction at 16 mg/L by time-kill analysis
Pichia kudriavzevii [16] = assay: Antifungal activity against Candida krusei ATCC 6258 bloodstream forms assessed as time to achieve 90% fungal growth reduction at 4 mg/L by time-kill analysis
Pichia kudriavzevii [17] = assay: Fungicidal activity against Candida krusei ATCC 6258 bloodstream forms after 48 hrs by M27-A3 microdilution method
Pichia kudriavzevii [18] = assay: Antifungal activity against Candida krusei ATCC 6258 bloodstream forms assessed as time to achieve 99.9% fungal growth reduction at 1 mg/L by time-kill analysis
Pichia kudriavzevii [19] = assay: Fungicidal activity against Candida krusei EU123 bloodstream forms after 24 hrs by time-kill analysis; settings: EU123, 24 h
Pichia kudriavzevii [20] = assay: Fungicidal activity against Candida krusei EU220 bloodstream forms after 24 hrs by time-kill analysis; settings: EU220, 24 h
Pichia kudriavzevii [21] = assay: Antifungal activity against Candida krusei CK18 bloodstream forms after 24 hrs by time-kill analysis; settings: CK18, 24 h
Pichia kudriavzevii [22] = assay: Fungicidal activity against Candida krusei CK1 bloodstream forms after 24 hrs by time-kill analysis; settings: CK1, 24 h
Pichia kudriavzevii [23] = assay: Fungicidal activity against Candida krusei CK18 bloodstream forms after 24 hrs by time-kill analysis; settings: CK18, 24 h
Pichia kudriavzevii [24] = assay: Antifungal activity against Candida krusei CK1 bloodstream forms after 24 hrs by time-kill analysis; settings: CK1, 24 h
Pichia kudriavzevii [25] = assay: Antifungal activity against Candida krusei ATCC 6258 bloodstream forms assessed as minimum concentration producing >= 100% growth reduction after 24 hrs by M27-A3 microdilution method; settings: ATCC 6258, 24 h
Pichia kudriavzevii [26] = assay: Antifungal activity against Candida krusei ATCC 6258 bloodstream forms assessed as time to achieve 50% fungal growth reduction at 4 mg/L by time-kill analysis
Pichia kudriavzevii [27] = assay: Antifungal activity against Candida krusei CK2 bloodstream forms after 24 hrs by time-kill analysis; settings: CK2, 24 h
Pichia kudriavzevii [28] = assay: Antifungal activity against Candida krusei EU220 bloodstream forms after 24 hrs by time-kill analysis; settings: EU220, 24 h
Pichia kudriavzevii [29] = assay: Fungicidal activity against Candida krusei CK6 bloodstream forms after 24 hrs by time-kill analysis; settings: CK6, 24 h
Pichia kudriavzevii [30] = assay: Antifungal activity against Candida krusei CY118 bloodstream forms after 24 hrs by time-kill analysis; settings: CY118, 24 h
Pichia kudriavzevii [31] = assay: Antifungal activity against Candida krusei ATCC 6258 bloodstream forms assessed as time to achieve 99.9% fungal growth reduction at 4 mg/L by time-kill analysis
Pichia kudriavzevii [32] = assay: Antifungal activity against Candida krusei ATCC 6258 bloodstream forms assessed as minimum concentration producing >= 50% growth reduction after 48 hrs by M27-A3 microdilution method; settings: ATCC 6258, 48 h
Pichia kudriavzevii [33] = assay: Antifungal activity against Candida krusei ATCC 6258 bloodstream forms assessed as time to achieve 99% fungal growth reduction at 0.25 mg/L by time-kill analysis
Pichia kudriavzevii [34] = assay: Antifungal activity against Candida krusei ATCC 6258 bloodstream forms assessed as time to achieve 90% fungal growth reduction at 1 mg/L by time-kill analysis
Pichia kudriavzevii [35] = assay: Antifungal activity against Candida krusei ATCC 6258 bloodstream forms after 24 hrs by time-kill analysis; settings: ATCC 6258, 24 h
Pichia kudriavzevii [36] = assay: Fungicidal activity against Candida krusei CY118 bloodstream forms after 24 hrs by time-kill analysis; settings: CY118, 24 h
Pichia kudriavzevii [37] = assay: Fungicidal activity against Candida krusei ATCC 6258 bloodstream forms after 24 hrs by time-kill analysis; settings: ATCC 6258, 24 h

CCCCCOc1ccc(-c2cc(-c3ccc(C(=O)N[C@H]4C[C@@H](O)[C@@H](O)NC(=O)[C@@H]5[C@@H](O)[C@@H](C)CN5C(=O)[C@H]([C@H](O)CC(N)=O)NC(=O)[C@H]([C@H](O)[C@@H](O)c5ccc(O)c(OS(=O)(=O)O)c5)NC(=O)[C@@H]5C[C@@H](O)CN5C(=O)[C@H]([C@@H](C)O)NC4=O)cc3)no2)cc1 [MICAFUNGIN] (X1-[Orn(4R-OH,5R-OH)]T[Hyp][hTyr(3S-OH,4S-OH,3'-OSO3H)][Gln(3R-OH)][Pro(3S-OH,4S-Me)]; lactam 1-C)
MFC (Pichia kudriavzevii [1]): 0.5 µg/mL (≈ 0.394 µM)
Time (Pichia kudriavzevii [2]): 17.28 h
MIC (Pichia kudriavzevii [3]): 0.12 µg/mL (≈ 0.0945 µM)
Time (Pichia kudriavzevii [4]): 8.64 h
Time (Pichia kudriavzevii [5]): 20.5 h
MIC50 (Pichia kudriavzevii [6]): 0.5 µg/mL (≈ 0.394 µM)
MIC90 (Pichia kudriavzevii [6]): 0.5 µg/mL (≈ 0.394 µM)
Time (Pichia kudriavzevii [7]): 3.1 h
Time (Pichia kudriavzevii [8]): 2.6 h
Time (Pichia kudriavzevii [9]): 10.3 h
MIC50 (Pichia kudriavzevii [10]): 0.25 µg/mL (≈ 0.197 µM)
MIC90 (Pichia kudriavzevii [10]): 0.5 µg/mL (≈ 0.394 µM)
Time (Pichia kudriavzevii [11]): 3.1 h
MIC (Pichia kudriavzevii [12]): 0.5 µg/mL (≈ 0.394 µM)
Time (Pichia kudriavzevii [13]): 31 h
Time (Pichia kudriavzevii [14]): 21.25 h
Time (Pichia kudriavzevii [15]): 25.91 h
Time (Pichia kudriavzevii [16]): 10.63 h
MFC50 (Pichia kudriavzevii [17]): 0.5 µg/mL (≈ 0.394 µM)
MFC90 (Pichia kudriavzevii [17]): 0.5 µg/mL (≈ 0.394 µM)
MFC (Pichia kudriavzevii [17]; Pichia kudriavzevii, ATCC 6258, 48 h): 0.25 µg/mL (≈ 0.197 µM)
Time (Pichia kudriavzevii [18]): 30.7 h
MFC (Pichia kudriavzevii [19]): 0.5 µg/mL (≈ 0.394 µM)
MFC (Pichia kudriavzevii [20]): 0.25 µg/mL (≈ 0.197 µM)
MIC (Pichia kudriavzevii [21]): 0.25 µg/mL (≈ 0.197 µM)
MFC (Pichia kudriavzevii [22]): 0.5 µg/mL (≈ 0.394 µM)
MFC (Pichia kudriavzevii [23]): 0.5 µg/mL (≈ 0.394 µM)
MIC (Pichia kudriavzevii [24]): 0.25 µg/mL (≈ 0.197 µM)
MIC50 (Pichia kudriavzevii [25]): 0.5 µg/mL (≈ 0.394 µM)
MIC90 (Pichia kudriavzevii [25]): 0.5 µg/mL (≈ 0.394 µM)
Time (Pichia kudriavzevii [26]): 3.2 h
MIC (Pichia kudriavzevii [27]): 0.5 µg/mL (≈ 0.394 µM)
MIC (Pichia kudriavzevii [28]): 0.25 µg/mL (≈ 0.197 µM)
MFC (Pichia kudriavzevii [29]): 0.5 µg/mL (≈ 0.394 µM)
MIC (Pichia kudriavzevii [30]): 1 µg/mL (≈ 0.787 µM)
Time (Pichia kudriavzevii [31]): 31.88 h
MIC50 (Pichia kudriavzevii [32]): 0.5 µg/mL (≈ 0.394 µM)
MIC90 (Pichia kudriavzevii [32]): 0.5 µg/mL (≈ 0.394 µM)
Time (Pichia kudriavzevii [33]): 20.6 h
Time (Pichia kudriavzevii [34]): 10.2 h
MIC (Pichia kudriavzevii [35]): 0.12 µg/mL (≈ 0.0945 µM)
MFC (Pichia kudriavzevii [36]): 16 µg/mL (≈ 12.6 µM)
MFC (Pichia kudriavzevii [37]): 0.25 µg/mL (≈ 0.197 µM)
